Test results reported in US20050214336A1, “Parasite control in animals” (priority 2002, published 2005).

System: Musca domestica first instars
Assay: Development of Musca domestica larvae on cattle dung following oral treatment of the animal (feed-through test)
Type: in vivo
Settings: cattle 300 kg, 3 g active compound in capsule on three consecutive days, dung samples
Text: Test for the development of Musca domestica larvae on cattle dung following oral treatment of the animal with active-compound-comprising formulation (feed-through test) Cattle 300 kg in weight are fed on three consecutive days with in each case 3 g of active compound in a capsule formulation. Dung samples of treated animals are populated with Musca domestica first instars, and the development into adult flies was monitored in comparison with the development of dung samples of an untreated control. Those substances which reliably prevent the development of adults over a period of four weeks are assessed as active.

What does the source list for `CCC(C)(C)C(=O)OC1=C(c2ccc(Cl)cc2Cl)C(=O)OC12CCCCC2` [compound A, 2,2-dimethyl-, 3-(2,4-dichlorophenyl)-2-oxo-1-oxaspiro[4,5]dec-3-en-4-yl-butanoate]?
long-term activity (prevention of development into adult flies) (after day 3, long-term (period of four weeks)): 100%; activity (prevention of development into adult flies) (up to day 3 after the treatment): 50%
